Results reported in patent publication EP1561465A2, “Methods of use of fluoroquinolone compounds against bacteria” (LG Life Sciences, Ltd., priority 1999, dated 2001).
≈ marks a conversion by molar mass, not a printed value. Read-outs that look alike come from different tables or passages of the source.

Key:
Salmonella spp. [1] = assay: MIC by agar dilution (NCCLS M7-A4), 288 enteropathogenic isolates, eight quinolones; format: cell-based; settings: for MIC: ciprofloxacin MIC ≥[…], read-out: MIC
Hafnia alvei [2] = assay: as above; format: cell-based; settings: Hafnia alvei (n = 32)
Yersinia enterocolitica [3] = assay: as above; format: cell-based; settings: Yersinia enterocolitica (n = 22)
Shigella spp. [4] = assay: as above; format: cell-based; settings: Shigella spp. (n = 21)
Aeromonas spp. [5] = assay: as above; format: cell-based; settings: Aeromonas spp. (n = 16)
Campylobacter jejuni [6] = assay: MIC by agar dilution (NCCLS M7-A4), 5% sheep blood, microaerophilic 48 h; format: cell-based; settings: Campylobacter jejuni (n=91)
Salmonella spp. [7] = assay: MIC by agar dilution (NCCLS M7-A4), 288 enteropathogenic isolates, gemifloxacin and 15 other antimicrobials; format: cell-based
Hafnia alvei [8] = assay: as above; format: cell-based; settings: Hafnia alvei N= 32
Yersinia enterocolitica [9] = assay: as above; format: cell-based; settings: Yersinia enterocolitica N= 22
Shigella spp. [10] = assay: as above; format: cell-based; settings: Shigella spp. N= 21
Description: [A. hydrophila (12), and A. sobria (4)], and 91 Campylobacter jejuni. […] The strains were stored in skimmed-milk at -80 °C until studied.
The plates were incubated aerobically at 35 °C for 24 h, except for Campylobacter jejuni, where a microaerophilic atmosphere was obtained by using Campy Pack (Becton Dickinson, Cockeysville, MD, USA), and incubation was for 48 h. All organisms were tested with an inoculum of ≅ 10^4 cfu/spot. MICs were defined as the lower antibiotic concentration with no visible growth.

Aeromonas spp. [11] = assay: as above; format: cell-based; settings: Aeromonas spp. N= 16
Campylobacter jejuni [12] = assay: as above; settings: Campylobacter jejuni
[13] = 24 h, read-out: MIC (mg/L) Range

`CCn1cc(C(=O)O)c(=O)c2cc(F)c(N3CCNCC3)cc21` [Norfloxacin, norfloxacin] showed an MIC (Salmonella spp. [1]; S. hadar (n = 2)) of 4 µg/mL (≈ 12.5 µM), an MIC (Salmonella spp. [1]; S. newport (n = 1)) of 2 µg/mL (≈ 6.26 µM) and an MIC (Salmonella spp. [1]; S. virchow (n = 2)) of 0.5 µg/mL (≈ 1.57 µM). For the same compound, the “% Susceptible” value (Salmonella spp. [1]; Salmonella spp. (n = 106)) was 100%, the MIC50 (Salmonella spp. [1]; Salmonella spp. (n = 106)) was 0.06 µg/mL (≈ 0.188 µM) and the MIC90 (Salmonella spp. [1]; Salmonella spp. (n = 106)) was 0.5 µg/mL (≈ 1.57 µM). The “MIC Range” value (Salmonella spp. [1]; Salmonella spp. (n = 106)) was 0.06 to 4 µg/mL, the MIC (Salmonella spp. [1]; Salmonella, S. tshiongwe (n = 1)) was 4 µg/mL (≈ 12.5 µM) and the “% Susceptible” value (Hafnia alvei [2]) was 100%. For the same compound, the MIC50 (Hafnia alvei [2]) was 0.03 µg/mL (≈ 0.0939 µM), the MIC90 (Hafnia alvei [2]) was 0.03 µg/mL (≈ 0.0939 µM) and the “MIC Range” value (Hafnia alvei [2]) was no more than 0.015 to 0.03 µg/mL. For the same compound, the “% Susceptible” value (Yersinia enterocolitica [3]) was 100%, the MIC50 (Yersinia enterocolitica [3]) was 0.06 µg/mL (≈ 0.188 µM) and the MIC90 (Yersinia enterocolitica [3]) was 0.06 µg/mL (≈ 0.188 µM). For the same compound, the “MIC Range” value (Yersinia enterocolitica [3]) was 0.06 to 0.5 µg/mL, the “% Susceptible” value (Shigella spp. [4]) was 100% and the MIC50 (Shigella spp. [4]) was 0.06 µg/mL (≈ 0.188 µM). The MIC90 (Shigella spp. [4]) was 0.06 µg/mL (≈ 0.188 µM), the “MIC Range” value (Shigella spp. [4]) was 0.03 to 0.06 µg/mL and the “% Susceptible” value (Aeromonas spp. [5]) was 100%. The MIC50 (Aeromonas spp. [5]) was no more than 0.015 µg/mL, the MIC90 (Aeromonas spp. [5]) was 0.03 µg/mL (≈ 0.0939 µM) and the “MIC Range” value (Aeromonas spp. [5]) was no more than 0.015 to 0.12 µg/mL. The “% Susceptible” value (Campylobacter jejuni [6]) was 31.86%, the MIC50 (Campylobacter jejuni [6]) was 128 µg/mL (≈ 401 µM) and the MIC90 (Campylobacter jejuni [6]) was greater than 128 µg/mL. The MIC (Salmonella spp. [7]; S. hadar(2), isolates with MICs for ciprofloxacin ≥[…], read-out: MIC) was 4 mg/L (≈ 12.5 µM), the MIC (Salmonella spp. [7]; S. newport(1), isolate with MIC for ciprofloxacin ≥[…], read-out: MIC) was 2 mg/L (≈ 6.26 µM) and the MIC (Salmonella spp. [7]; S. virchow(2), isolates with MICs for ciprofloxacin ≥[…], read-out: MIC) was 0.5 mg/L (≈ 1.57 µM). For the same compound, the “MIC (mg/L) Range” value (Salmonella spp. [7]; Salmonella spp. N= 106) was 0.06 to 4 mg/L, the MIC (Salmonella spp. [7]; Salmonella, S. tshiongwe(1), isolate with MIC for ciprofloxacin ≥[…], read-out: MIC) was 4 mg/L (≈ 12.5 µM) and the MIC (Salmonella spp. [7]; Salmonella, read-out: MIC (mg/L) 50%, Salmonella spp. N= 106) was 0.06 mg/L (≈ 0.188 µM). It also gave an MIC (Salmonella spp. [7]; Salmonella, read-out: MIC (mg/L) 90%, Salmonella spp. N= 106) of 0.5 mg/L (≈ 1.57 µM), an MIC (Hafnia alvei [8]; [13]) of 0.015 to 0.03 mg/L (≈ 0.047 to 0.0939 µM) and an MIC (Hafnia alvei [8]; read-out: MIC (mg/L) 50%) of 0.03 mg/L (≈ 0.0939 µM). It also gave an MIC (Hafnia alvei [8]; read-out: MIC (mg/L) 90%) of 0.03 mg/L (≈ 0.0939 µM), an MIC (Yersinia enterocolitica [9]; [13]) of 0.06 to 0.5 mg/L (≈ 0.188 to 1.57 µM) and an MIC (Yersinia enterocolitica [9]; read-out: MIC (mg/L) 50%) of 0.06 mg/L (≈ 0.188 µM). For the same compound, the MIC (Yersinia enterocolitica [9]; read-out: MIC (mg/L) 90%) was 0.06 mg/L (≈ 0.188 µM), the MIC (Shigella spp. [10]; [13]) was 0.03 to 0.06 mg/L (≈ 0.0939 to 0.188 µM) and the MIC (Shigella spp. [10]; read-out: MIC (mg/L) 50%) was 0.06 mg/L (≈ 0.188 µM). The MIC (Shigella spp. [10]; read-out: MIC (mg/L) 90%) was 0.06 mg/L (≈ 0.188 µM), the “MIC (mg/L) Range” value (Aeromonas spp. [11]) was no more than 0.015 to 0.12 mg/L and the MIC (Aeromonas spp. [11]; read-out: MIC (mg/L) 50%) was no more than 0.015 mg/L. For the same compound, the MIC (Aeromonas spp. [11]; read-out: MIC (mg/L) 90%) was 0.03 mg/L (≈ 0.0939 µM), the MIC (Campylobacter jejuni [12]; read-out: MIC (mg/L) 50%) was 128 mg/L (≈ 401 µM) and the MIC (Campylobacter jejuni [12]; read-out: MIC (mg/L) 90%) was greater than 128 mg/L.
